Tested on: compound 48/80-induced lethality
Experiment: Protection of rats from compound 48/80-induced lethality
Format: in vivo, rats of an inbred Wistar strain
Settings: Rattus norvegicus, 4 h, read-out: Compound 48/80 lethality test in rats ED50, s.c. or p.o. 1 h before compound 48/80 0.5 mg/kg i.v.; protection of 50% of animals, survival after 4 hours
Description: Protection of rats from compound 48/80-induced lethality
The protection from compound 48/80-induced lethal circulatory collapse appears to be a simple way of evaluating quantitatively the antihistaminic activity of test compounds. Male rats of an inbred Wistar strain, weighing 240-260 g were used in the experiment. After overnight starvation the rats were transferred to conditioned laboratories (temp.=21±1° C., relative humidity=65+5%). The rats were treated subcutaneously or orally with a test compound or with the solvent (NaCl solution, 0.9%). […] Survival after 4 hours is therefore considered to be a safe criterion of a protective effect of drug administration. The ED50 -values of the compounds of formula (I) are listed in the first column of tables 1 to 4. Said ED50 -values are the values in mg/kg body weight at which the tested compounds protect 50% of the tested animals against compound 48/80-induced lethality. The compounds of formula (I) and the pharmaceutically acceptable acid addition salts thereof are also potent serotonin-antagonists. The potency of the subject compounds as serotonin-antagonists is clearly evidenced by the results obtained in the following tests wherein the antagonistic activity of the subject compounds on the effect of serotonin is examined.

| Compound | ED50 |
| --- | --- |
| CCn1nnnc1SCCN1CCC(Cc2nc3ccccc3n2Cc2ccc(F)cc2)CC1 [Compound 181] | 0.04 mg/kg |
| O=C(NCCN1CCC(Cc2nc3ccccc3n2Cc2ccc(F)cc2)CC1)c1cc2ccccc2oc1=O [Compound 445, N-[2-[4-[[1-[(4-fluorophenyl)methyl]-1H-benzimidazol-2-yl]methyl]-1-piperidinyl]ethyl]-2-oxo-2H-1-benzopyran-3-carboxamide] | 0.16 mg/kg |
| COc1ccc(CCN2CCC(Cc3nc4ccccc4n3CCc3ccccc3)CC2)cc1 [Compound 516, 2-[[1-[2-(4-methoxyphenyl)ethyl]-4-piperidinyl]methyl]-1-(2-phenylethyl)-1H-benzimidazole] | 0.16 mg/kg |
| CCOC(=O)NCCN1CCC(Cc2nc3ccccc3n2Cc2cscn2)CC1 [Compound 248] | 0.04 mg/kg |
| Cn1cnc2c(NCCN3CCC(Cc4nc5ccccc5n4Cc4ccc(F)cc4)CC3)ncnc21 [Compound 369] | 0.04 mg/kg |
| C[C@@H]1CN(CCNc2ncccn2)CC[C@@H]1Oc1nc2ccccc2n1Cc1ccc(F)cc1 (relative stereo) [Compound 349, cis-N-[2-[4-[[1-[(4-fluorophenyl)methyl]-1H-benzimidazol-2-yl]oxy]-3-methyl-1-piperidinyl]ethyl]-2-pyrimidinamine] | 0.08 mg/kg |
| O=C(NCCN1CCC(Cc2nc3ccccc3n2Cc2ccc(F)cc2)CC1)c1cc(O)c2ccccc2n1 [Compound 444, N-[2-[4-[[1-[(4-fluorophenyl)methyl]-1H-benzimidazol-2-yl]methyl]-1-piperidinyl]ethyl]-4-hydroxy-2-quinolinecarboxamide] | 0.16 mg/kg |
| Cc1nc2scc(C)n2c(=O)c1CCN1CCC(Cc2nc3ccccc3n2Cc2ccco2)CC1 [Compound 216] | 0.04 mg/kg |
| O=c1oc2ccccc2cc1CCN1CCC(Cc2nc3ccccc3n2Cc2cccs2)CC1 [Compound 259] | 0.08 mg/kg |
| OCCN1CCC(Cc2nc3ccccc3n2Cc2ccccc2)CC1 [Compound 112] | 0.08 mg/kg |
| O=c1[nH]c2ccccc2n1CCCN1CCC(Cc2nc3ccccc3n2Cc2ccco2)CC1 [Compound 139, 1-[3-[4-[[1-(2-furanylmethyl)-1H-benzimidazol-2-yl]methyl]-1-piperidinyl]propyl]-1,3-dihydro-2H-benzimidazol-2-one] | 0.08 mg/kg |
| Fc1ccc(Cn2c(CC3CCN(CCNc4ncnc5[nH]cnc45)CC3)nc3ccccc32)cc1 [Compound 370] | 0.02 mg/kg |
| Fc1ccc(Cn2c(CC3CCN(CCSc4nc5cnccc5s4)CC3)nc3ccccc32)cc1 [Compound 388, 2-[[2-[4-[[1-[(4-fluorophenyl)methyl]-1H-benzimidazol-2-yl]methyl]-1-piperidinyl]ethyl]thio]thiazolo[4,5-c]pyridine] | 0.16 mg/kg |
| Cc1nc2n(c(=O)c1CCN1CCC(Cc3nc4cccnc4n3Cc3ccco3)CC1)CCCS2 [Compound 178] | 0.02 mg/kg |
| COc1ccc(CCN2CCC(Cc3nc4ccccc4n3Cc3cccs3)CC2)cc1 [Compound 232] | 0.08 mg/kg |
| Cc1nc2n(c(=O)c1CCN1CCC(Cc3nc4cccnc4n3Cc3ccc(F)cc3)CC1)CCCS2 [Compound 205, 7-[2-[4-[[3-[(4-fluorophenyl)methyl]-3H-imidazo[4,5-b]pyridin-2-yl]methyl]-1-piperidinyl]ethyl]-3,4-dihydro-8-methyl-2H,6H-pyrimido[2,1-b][1,3]thiazin-6-one] | 0.08 mg/kg |
| Cc1nc2n(c(=O)c1CCN1CCC(Cc3nc4cccnc4n3Cc3ccccn3)CC1)CCCC2 [Compound 258] | 0.08 mg/kg |
| Fc1ccc(Cn2c(OC3CCN(CCOc4ncccn4)CC3)nc3ccccc32)cc1 [Compound 390, 1-[(4-fluorophenyl)methyl]-2-[[1-[2-(2-pyrimidinyloxy)ethyl]-4-piperidinyl]oxy]-1H-benzimidazole] | 0.04 mg/kg |
| O=c1c2ccccc2[nH]c(=S)n1CCN1CCC(Cc2nc3cccnc3n2Cc2ccc(F)cc2)CC1 [Compound 463, 3-[2-[4-[[3-[(4-fluorophenyl)methyl]-3H-imidazo[4,5-b]pyridin-2-yl]methyl]-1-piperidinyl]ethyl]-2,3-dihydro-2-thioxo-4(1H)quinazolinone] | 0.08 mg/kg |
| Nc1ccccc1C(=O)NCCN1CCC(Cc2nc3cccnc3n2Cc2ccco2)CC1 [Compound 473, 2-amino-N-[2-[4-[[3-(2-furanylmethyl)-3H-imidazo[4,5-b]pyridin-2-yl]methyl]-1-piperidinyl]ethyl]benzamide] | 0.02 mg/kg |
| O=c1oc2ccccc2cc1CCN1CCC(Cc2nc3ccccc3n2Cc2ccco2)CC1 [Compound 165] | 0.02 mg/kg |
| CN1CCC(Cc2nc3ccccc3n2Cc2ccco2)CC1 [Compound 86] | 0.01 mg/kg |
| CNCCN1CCC(Cc2nc3ccccc3n2Cc2ccc(F)cc2)CC1 [Compound 513, 4[[1-[(4-fluorophenyl)methyl]-1H-benzimidazol-2-yl]methyl]-N-methyl-1-piperidineethanamine] | 0.08 mg/kg |
| O=c1[nH]c2ccccc2n1CCCN1CCC(Cc2nc3cccnc3n2Cc2cccs2)CC1 [Compound 215] | 0.08 mg/kg |

| Compound | ED50 |
| --- | --- |
| CC(=O)N(C)c1ccccc1C(=O)NCCN1CCC(Cc2nc3ccccc3n2Cc2ccco2)CC1 [Compound 511] | 0.16 mg/kg |
| Cc1nc(CCN2CCC(Cc3nc4ccccc4n3Cc3ccc(F)cc3)CC2)cs1 [Compound 459, 1-[(4-fluorophenyl)methyl]-2-[[1-[2-(2-methyl-4-thiazolyl)ethyl]-4-piperidinyl]methyl]-1H-benzimidazole] | 0.02 mg/kg |
| CCOC(=O)N1CCC(Cc2nc3ccccc3n2Cc2cccs2)CC1 [Compound 59, ethyl 4-[[1-(2-thienylmethyl)-1H-benzimidazol-2-yl]methyl]-1-piperidinecarboxylate] | 0.02 mg/kg |
| COc1ccc(CCN2CCC(Cc3nc4cccnc4n3Cc3ccccn3)CC2)cc1 [Compound 234] | 0.02 mg/kg |
| COc1ccc(Cn2c(CC3CCN(CCNc4nccs4)CC3)nc3cccnc32)cc1 [Compound 365] | 0.08 mg/kg |
| c1ccc(Cn2c(CC3CCN(CCNc4ncccn4)CC3)nc3cccnc32)cc1 [Compound 345] | 0.08 mg/kg |
| Cc1nc2ccccn2c(=O)c1CCN1CCC(Cc2nc3ccccc3n2Cc2cscn2)CC1 [Compound 261] | 0.08 mg/kg |
| O=c1[nH]c2ccccc2c(=O)n1CCN1CCC(Cc2nc3cccnc3n2Cc2ccco2)CC1 [Compound 171] | 0.08 mg/kg |
| Fc1ccc(Cn2c(CC3CCNCC3)nc3ccncc32)cc1 [Compound 50, 3-[(4-fluorophenyl)methyl]-2-(4-piperidinylmethyl)-3H-imidazo[4,5-c]-pyridine] | 0.04 mg/kg |
| COc1ccc(Cn2c(CC3CCN(CC#N)CC3)nc3ccccc32)cc1 [Compound 293] | 0.08 mg/kg |
| Cn1c(=O)n(CCN2CCC(Cc3nc4cccnc4n3Cc3ccco3)CC2)c(=O)c2ccccc21 [Compound 170] | 0.08 mg/kg |
| Nc1ccccc1C(=O)NCCN1CCC(Cc2nc3ccccc3n2Cc2ccco2)CC1 [Compound 466, 2-amino-N-[2-[4-[[1-(2-furanylmethyl)-1H-benzimidazol-2-yl]methyl]-1-piperidinyl]ethyl]benzamide] | 0.02 mg/kg |
| Cn1c(=O)c2c(ncn2CCN2CCC(Cc3nc4cccnc4n3Cc3ccco3)CC2)n(C)c1=O [Compound 176] | 0.04 mg/kg |
| Nc1ccccc1C(=O)NCCCCN1CCC(Cc2nc3ccccc3n2Cc2ccco2)CC1 [Compound 472, 2-amino-N-[4-[4-[[1-(2-furanylmethyl)-1H-benzimidazol-2-yl]methyl]-1-piperidinyl]butyl]benzamide] | 0.04 mg/kg |
| Fc1ccc(Cn2c(CC3CCN(CCSc4ccccc4)CC3)nc3ccccc32)cc1 [Compound 129] | 0.16 mg/kg |
| Cc1ccc(Cn2c(CC3CCN(CCO)CC3)nc3ccccc32)cc1 [Compound 113, 4-[[1-[(4-methylphenyl)methyl]-1H-benzimidazol-2-yl]methyl]-1-piperidineethanol] | 0.08 mg/kg |
| CC1(C)Nc2ccccc2C(=O)N1CCN1CCC(Cc2nc3cccnc3n2Cc2ccccn2)CC1 [Compound 479, 2,3-dihydro-2,2-dimethyl-3-[2-[4-[[3-(2-pyridinylmethyl)-3H-imidazo[4,5-b]-pyridin-2-yl]methyl]-1-piperidinyl]ethyl]-4(1H)-quinazolinone] | 0.04 mg/kg |
| Fc1ccc(Cn2c(CC3CCN(CCSc4ccccc4)CC3)nc3cccnc32)cc1 [Compound 147, 3-[(4-fluorophenyl)methyl]-2-[[1-[2-(phenylthio)ethyl]-4-piperidinyl]methyl]-3H-imidazo[4,5-b]pyridine] | 0.08 mg/kg |
| O=C(c1ccco1)N(CCN1CCC(Cc2nc3ccccc3n2Cc2ccco2)CC1)c1ncccn1 [Compound 509, N-[2-[4-[[1-(2-furanylmethyl)-1H-benzimidazol-2-yl]methyl]-1-piperidinyl]-ethyl]-N-(2-pyrimidinyl)-2-furancarboxamide] | 0.02 mg/kg |
| O=[N+]([O-])c1ccccc1NCCN1CCC(Cc2nc3ccccc3n2Cc2ccc(F)cc2)CC1 [Compound 366] | 0.31 mg/kg |
| Cc1ccc(Cn2c(CC3CCN(C)CC3)nc3ccccc32)cc1 [Compound 81, 1-[(4-methylphenyl)methyl]-2-[(1-methyl-4-piperidinyl)methyl]-1H-benzimidazole] | 0.08 mg/kg |
| CCn1nnn(CCN2CCC(Cc3nc4ccccc4n3Cc3ccc(F)cc3)CC2)c1=O [Compound 123] | 0.01 mg/kg |
| Cc1nc2ccccn2c(=O)c1CCN1CCC(Cc2nc3cccnc3n2Cc2ccccn2)CC1 [Compound 256] | 0.08 mg/kg |

Source: patent US4839374A, “4-((Bicyclic heterocyclyl)-methyl and -hetero)-piperidines” (Janssen Pharmaceutica, N.V., priority 1987, dated 1989)
